From patent publication EP1203770A1 (priority 1992, dated 1994)
pKi: −log10 of the molar value. Read-outs that look alike come from different tables or passages of the source.

Target: T1, HIV-1 protease (Human immunodeficiency virus type 1 group M subtype B, UniProt P04585)
T1 construct: The protease (or proteinase), consisting of only 99 amino acids, is among the smallest enzymes known
Test: In vitro HIV protease inhibitory assay (HIV Protease FITC Assay)
Type: biochemical
Conditions: for inhibition at 0.123 µM / inhibition at 0.37 µM / inhibition at 1.1 µM / inhibition at 3.3 µM / inhibition at 10 µM / inhibition at 30 µM / inhibition at 100 µM: read-out: HIV-1 Protease % Inhib; for pKi: read-out: HIV-1 FITC Ki; for inhibition at 100 µM: HIV-1 Dose 100.000 uM
Outline: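 Biotin/FITC-labelled peptide substrate cleaved by HIV-1 protease for 1 h at room temperature in the dark, in 0.1 M sodium acetate pH 5.5, 1.0 M NaCl, 0.05% NP-40. Uncleaved substrate captured on avidin beads and separated by filtration; fluorescence gave % inhibition.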

Row | SMILES | inhibition at 0.123 µM (HIV-1 Dose 0.123 uM) [%] | inhibition at 0.37 µM (HIV-1 Dose 0.370 uM) [%] | inhibition at 1.1 µM (HIV-1 Dose 1.100 uM) [%] | inhibition at 3.3 µM (HIV-1 Dose 3.300 uM) [%] | inhibition at 10 µM (HIV-1 Dose 10.000 uM) [%] | inhibition at 30 µM (HIV-1 Dose 30.000 uM) [%] | inhibition at 0.123 µM [%] | inhibition at 0.37 µM [%] | inhibition at 1.1 µM [%] | inhibition at 3.3 µM [%] | inhibition at 10 µM [%] | inhibition at 30 µM [%] | pKi | inhibition at 100 µM [%]
1 | C=CC(C1=C(O)CC2(CCCC2)OC1=O)c1ccccc1 (stereo not drawn) [Example 128, 4-Hydroxy-3-(1-phenylallyl)-1-oxa-spiro[5.4]-dec-3-en-2-one] | < 10 | < 10 | 18.5 | 46.8 | 79.8 | 95.7 | – | – | – | – | – | – | – | –
2 | C=CC(C1=C(O)CC2(CCCCC2Cc2ccccc2)OC1=O)c1ccccc1 (stereo not drawn) [Example 129, 7-Benzyl-4-hydroxy-3-(1-phenylallyl)-1-oxa-spire[5.5]undec-3-en-2-one] | – | – | – | – | – | – | < 10 | < 10 | 43.5 | 67.1 | 80.7 | 83.4 | – | –
3 | CCC(C1=C(O)CC2(CCCC2)OC1=O)c1ccccc1 (stereo not drawn) [Example 130, 4-Hydroxy-3-(1-phenylpropyl)-1-oxa-spiro[5.4]-dec-3-en-2-one] | < 10 | < 10 | < 10 | < 10 | < 10 | 13.1 | – | – | – | – | – | – | – | –
4 | CCC(CCN1CCOCC1)c1cc(O)c(C(c2ccccc2)C2CC2)c(=O)o1 (stereo not drawn) [Example 131, 3-(Cyclopropylphenylmethyl)-6-[1-ethyl-3-(4-morpholinyl)propyl]-4-hydroxy-2H-pyran-2-one] | < 10 | < 10 | < 10 | < 10 | 13.2 | 45.9 | – | – | – | – | – | – | – | –
5 | CCC(CC(=O)OCc1ccccc1)c1cc(O)c(C(c2ccccc2)C2CC2)c(=O)o1 (stereo not drawn) [Example 132, 3-(Cyclopropylphenylmethyl)-β-ethyl-4-hydroxy-2-oxo-, phenylmethyl ester 2H-pyran-6-propanoic acid] | < 10 | < 10 | 29.1 | 70.2 | 87.6 | 110 | – | – | – | – | – | – | – | –
6 | CC(C)C(Cc1ccccc1)c1cc(O)c(C(c2ccccc2)C2CC2)c(=O)o1 (stereo not drawn) [Example 133, 3-(Cyclopropylphenylmethyl)4-hydroxy-6-[2-methyl-1-(phenylmethyl)propyl]-2H-pyran-2-one] | 20.6 | 49.6 | 74.3 | 95.9 | 110 | 102 | – | – | – | – | – | – | 7.40 | –
7 | CC(C)C(CC1CCCOC1)c1cc(O)c(C(c2ccccc2)C2CC2)c(=O)o1 (stereo not drawn) [Example 134, 3-(Cyclopropylphenylmethyl)-4-hydroxy-6-[2-methyl-1-[(tetrahydro-2H-pyran-3-yl)methyl]propyl]-2H-pyran-2-one] | 21.1 | 57.5 | 83.1 | 99.7 | 111 | 106 | – | – | – | – | – | – | 7.62 | –
8 | CCC(CCC(F)(F)F)c1cc(O)c(C(c2ccccc2)C2CC2)c(=O)o1 (stereo not drawn) [Example 136, 3-(Cyclopropylphenylmethyl)-6-(1-ethyl-4,4,4-trifluorobutyl)-4-hydroxy-2H-pyran-2-one] | < 10 | 24.5 | 62.4 | 91.3 | 99.1 | 99.7 | – | – | – | – | – | – | 7.28 | –
9 | CCC(CC1CCCN(S(=O)(=O)c2ccc(C)cc2)C1)c1cc(O)c(C(c2ccccc2)C2CC2)c(=O)o1 (stereo not drawn) [Example 137, 3-[2-[3-(Cyclopropylphenylmethyl)-4-hydroxy-2-oxo-2H-pyran-6-yl]butyl]-1-[(4-methylphenyl)sulfonyl]-piperidine] | < 10 | < 10 | 23 | 57.2 | 80.2 | 79.7 | – | – | – | – | – | – | – | –
10 | CCC(CC1CCCN1S(=O)(=O)c1ccc(C)cc1)c1cc(O)c(C(c2ccccc2)C2CC2)c(=O)o1 (stereo not drawn) [Example 138, 2-[2-[3-(Cyclopropylphenylmethyl)-4-hydroxy-2-oxo-2H-pyran-6-yl]butyl]-1-[(4-methylphenyl)sulfonyl]-pyrrolidine] | < 10 | < 10 | 24.8 | 63.9 | 83.3 | 81.1 | – | – | – | – | – | – | – | –
11 | O=c1oc(CCC(F)(F)F)cc(O)c1C(c1ccccc1)C1CC1 (stereo not drawn) [Example 139, 3-(Cyclopropylphenylmethyl)-4-hydroxy-6-(3,3,3-trifluoropropyl)-2H-pyran-2-one] | < 10 | < 10 | < 10 | 27.9 | 58 | 67.1 | – | – | – | – | – | – | – | –
12 | CCC(CC1CCCCN1S(=O)(=O)c1ccc(C)cc1)c1cc(O)c(C(c2ccccc2)C2CC2)c(=O)o1 (stereo not drawn) [Example 140, 2-[2-(3-(Cyclopropylphenylmethyl)-4-hydroxy-2-oxo-2H-pyran-6-yl]butyl]-1-[(4-methylphenyl)sulfonyl]-piperidine] | < 10 | 10.5 | 38.6 | 70.2 | 81.6 | 77.1 | – | – | – | – | – | – | – | –
13 | CCC(CC1CCN(S(=O)(=O)c2ccc(C)cc2)CC1)c1cc(O)c(C(c2ccccc2)C2CC2)c(=O)o1 (stereo not drawn) [Example 141, 4-[2-[3-(Cyclopropylphenylmethyl)-4-hydroxy-2-oxo-2H-pyran-6-yl]butyl]-1-[(4-methylphenyl)sulfonyl]-piperidine] | < 10 | < 10 | < 10 | < 10 | 11.2 | 17 | – | – | – | – | – | – | – | –
14 | CCC(CC1CC(=O)N(Cc2ccccc2)C1)c1cc(O)c(C(c2ccccc2)C2CC2)c(=O)o1 (stereo not drawn) [Example 142, 4-[2-[3-(Cyclopropylphenylmethyl)-4-hydroxy-2-oxo-2H-pyran-6-yl]butyl]-1-(phenylmethyl)-2-pyrrolidinone] | < 10 | < 10 | 26.9 | 64.3 | 88.7 | 104 | – | – | – | – | – | – | – | –
15 | O=c1oc(CC2CCCC2)cc(O)c1C(c1ccccc1)C1CC1 (stereo not drawn) [Example 143, 6-(Cyclopentylmethyl)-3-(cyclopropylphenylmethyl)-4-hydroxy-2H-pyran-2-one] | < 10 | < 10 | 25.1 | 57.9 | 83.1 | 93.8 | – | – | – | – | – | – | – | –
16 | O=c1oc(CC2CCOCC2)cc(O)c1C(c1ccccc1)C1CC1 (stereo not drawn) [Example 144, 3-(Cyclopropylphenylmethyl)-4-hydroxy-6-[(tetrahydro-2H-pyran-4-yl)methyl]-2H-pyran-2-one] | < 10 | < 10 | < 10 | < 10 | < 10 | 22.7 | – | – | – | – | – | – | – | –
17 | O=c1oc(CCCF)cc(O)c1C(c1ccccc1)C1CC1 (stereo not drawn) [Example 145, 3-(Cyclopropylphenylmethyl)-6-(3-fluoropropyl)-4-hydroxy-2H-pyran-2-one] | < 10 | < 10 | < 10 | 26.6 | 59.7 | 84.4 | – | – | – | – | – | – | – | –
18 | CCC(c1cc(O)c(C(c2ccccc2)C2CC2)c(=O)o1)C(O)c1ccccc1 (stereo not drawn) [Example 146, 3-(α-cyclopropylbenzyl)-4-hydroxy-6-(α-ethyl-β-hydroxyphenethyl)-2H-pyran-2-one] | 36.4 | 73.6 | 82.7 | 87.7 | 91.2 | 95.2 | – | – | – | – | – | – | – | –
19 | Cc1ccc(C(O)Cc2cc(O)c(C(c3ccccc3)C3CC3)c(=O)o2)cc1 (stereo not drawn) [Example 147, 3-(α-cyclopropylbenzyl)-4-hydroxy-6-(β-hydroxy-p-methylphenethyl)-2H-pyran-2-one] | < 10 | < 10 | 28.9 | 52.6 | 78.1 | 89.2 | – | – | – | – | – | – | – | 114
20 | O=c1oc(CC(O)c2ccc(F)cc2)cc(O)c1C(c1ccccc1)C1CC1 (stereo not drawn) [Example 148, 3-(α-cyclopropylbenzyl)-4-hydroxy-6-(β-hydroxy-p-fluorophenethyl)-2H-pyran-2-one] | < 10 | 22.4 | 52 | 80.3 | 91.9 | 89.7 | – | – | – | – | – | – | 6.79 | 130
21 | O=c1oc(CC(O)c2ccc(Cl)cc2)cc(O)c1C(c1ccccc1)C1CC1 (stereo not drawn) [Example 149, 3-(α-cyclopropylbenzyl)-4-hydroxy-6-(β-hydroxy-p-chlorophenethyl)-2H-pyran-2-one] | < 10 | 19.7 | 46.9 | 73.5 | 98.5 | 103 | – | – | – | – | – | – | 6.57 | 117
22 | O=c1oc(CC(O)c2cccc(Cl)c2)cc(O)c1C(c1ccccc1)C1CC1 (stereo not drawn) [Example 150, 3-(α-cyclopropylbenzyl)-4-hydroxy-6-(β-hydroxy-m-chlorophenethyl)-2H-pyran-2-one] | < 10 | 13.3 | 25.4 | 54.1 | 75.2 | 91 | – | – | – | – | – | – | – | 113
